Measured values from ChEMBL document CHEMBL3621147, “An azumamide C analogue without the zinc-binding functionality” (Medchemcomm, 2014).
Activity calls are given as the source filed them. No cut-off for these calls is given here.

How the values were obtained:
[1] = molecular target: T1, Histone deacetylase 7 (Homo sapiens) (UniProt Q8WUI4); experiment: Inhibition of human recombinant HDAC7 using Ac-Leu-Gly-Lys (Tfa)-AMC substrate incubated for 30 mins by fluorescence assay
T1 sequence (whole entry): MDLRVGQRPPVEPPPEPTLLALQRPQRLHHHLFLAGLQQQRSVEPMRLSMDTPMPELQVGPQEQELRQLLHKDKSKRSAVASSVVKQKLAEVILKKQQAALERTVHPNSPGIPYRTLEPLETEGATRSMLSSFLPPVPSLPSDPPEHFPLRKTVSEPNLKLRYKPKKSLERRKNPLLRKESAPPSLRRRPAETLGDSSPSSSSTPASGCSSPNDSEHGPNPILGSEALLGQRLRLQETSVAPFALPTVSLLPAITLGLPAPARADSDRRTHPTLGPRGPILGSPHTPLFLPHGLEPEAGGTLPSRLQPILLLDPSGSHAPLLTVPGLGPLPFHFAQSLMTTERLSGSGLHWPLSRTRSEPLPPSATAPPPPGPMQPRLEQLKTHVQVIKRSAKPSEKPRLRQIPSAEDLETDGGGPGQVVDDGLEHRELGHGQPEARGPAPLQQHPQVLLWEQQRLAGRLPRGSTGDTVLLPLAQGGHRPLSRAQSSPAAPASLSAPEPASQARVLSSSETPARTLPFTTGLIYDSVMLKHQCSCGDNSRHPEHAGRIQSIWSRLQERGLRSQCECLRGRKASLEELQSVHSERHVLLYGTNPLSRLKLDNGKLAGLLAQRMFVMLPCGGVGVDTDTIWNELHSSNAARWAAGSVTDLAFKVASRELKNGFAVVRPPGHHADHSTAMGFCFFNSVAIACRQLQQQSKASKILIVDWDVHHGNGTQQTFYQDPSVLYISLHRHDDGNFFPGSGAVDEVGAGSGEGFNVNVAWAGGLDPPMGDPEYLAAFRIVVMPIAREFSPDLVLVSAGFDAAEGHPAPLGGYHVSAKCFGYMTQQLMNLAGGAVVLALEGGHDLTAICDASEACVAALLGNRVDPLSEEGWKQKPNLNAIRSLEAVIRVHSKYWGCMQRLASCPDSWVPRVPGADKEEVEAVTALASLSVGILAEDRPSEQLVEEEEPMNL

[2] = molecular target: T2, Histone deacetylase 3/Nuclear receptor corepressor 2 (HDAC3/NCoR2) (Homo sapiens, UniProt O15379); experiment: Inhibition of human recombinant HDAC3/NCoR2 using Ac-Leu-Gly-Lys (Ac)-AMC substrate incubated for 45 mins by fluorescence assay based continuous assay protocol; assay type: protein-complex assay
[3] = molecular target: T3, Histone deacetylase 8 (Homo sapiens) (UniProt Q9BY41); experiment: Inhibition of human recombinant HDAC8 using Ac-Leu-Gly-Lys (Tfa)-AMC substrate incubated for 30 mins by fluorescence assay
T3 sequence (whole entry): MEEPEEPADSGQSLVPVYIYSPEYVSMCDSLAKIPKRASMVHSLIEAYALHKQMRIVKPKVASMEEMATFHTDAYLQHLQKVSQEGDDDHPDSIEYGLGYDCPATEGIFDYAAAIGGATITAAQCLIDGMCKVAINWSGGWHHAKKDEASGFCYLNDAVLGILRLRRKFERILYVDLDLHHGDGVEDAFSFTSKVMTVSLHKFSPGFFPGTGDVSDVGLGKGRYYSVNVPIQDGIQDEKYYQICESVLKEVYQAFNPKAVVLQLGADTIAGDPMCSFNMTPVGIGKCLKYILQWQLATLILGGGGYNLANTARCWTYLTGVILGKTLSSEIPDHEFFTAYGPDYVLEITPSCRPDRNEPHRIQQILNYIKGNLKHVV

[4] = molecular target: Histone deacetylase 9 (Homo sapiens) (UniProt Q9UKV0); experiment: Inhibition of human recombinant HDAC9 using Ac-Leu-Gly-Lys (Tfa)-AMC substrate incubated for 30 mins by fluorescence assay
Histone deacetylase 11 = molecular target: T4, Histone deacetylase 11 (Homo sapiens, UniProt Q96DB2); experiment: Inhibition of human recombinant HDAC11 using Ac-Leu-Gly-Lys (Ac)-AMC substrate incubated for 30 mins by fluorescence assay
T4 sequence (Q96DB2 whole entry): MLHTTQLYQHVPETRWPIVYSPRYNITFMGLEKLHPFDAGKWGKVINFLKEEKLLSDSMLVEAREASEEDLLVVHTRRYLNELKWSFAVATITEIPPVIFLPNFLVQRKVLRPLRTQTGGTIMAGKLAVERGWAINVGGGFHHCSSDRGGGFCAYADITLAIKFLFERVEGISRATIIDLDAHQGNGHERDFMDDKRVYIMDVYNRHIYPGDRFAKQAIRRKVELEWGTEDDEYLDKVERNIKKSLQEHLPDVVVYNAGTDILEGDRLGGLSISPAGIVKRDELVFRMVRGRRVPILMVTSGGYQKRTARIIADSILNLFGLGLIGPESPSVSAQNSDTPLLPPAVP

[5] = molecular target: T2, Histone deacetylase 3/Nuclear receptor corepressor 2 (HDAC3/NCoR2); experiment: Inhibition of human recombinant HDAC3/NCoR2 using Ac-Leu-Gly-Lys (Ac)-AMC substrate incubated for 30 mins by fluorescence assay; assay type: protein-complex assay
[6] = molecular target: Histone deacetylase 5 (Homo sapiens) (UniProt Q9UQL6); experiment: Inhibition of human recombinant HDAC5 using Ac-Leu-Gly-Lys (Tfa)-AMC substrate incubated for 30 mins by fluorescence assay
Histone deacetylase 1 = Histone deacetylase 1 (Homo sapiens, UniProt Q13547); experiment: Inhibition of human recombinant HDAC1 using Ac-Leu-Gly-Lys (Ac)-AMC substrate incubated for 30 mins by fluorescence assay
Histone deacetylase 2 = Histone deacetylase 2 (Homo sapiens, UniProt Q92769); experiment: Inhibition of human recombinant HDAC2 using Ac-Leu-Gly-Lys (Ac)-AMC substrate incubated for 30 mins by fluorescence assay
EB-3 = conditions: Homo sapiens, at 10 µM
Description: Antiproliferative activity against human EB3 cells at 10 uM incubated for 3 days by MTT assay

[7] = molecular target: Histone deacetylase 4 (Homo sapiens) (UniProt P56524); experiment: Inhibition of human recombinant HDAC4 using Ac-Leu-Gly-Lys (Tfa)-AMC substrate incubated for 30 mins by fluorescence assay
[8] = molecular target: T5, Polyamine deacetylase HDAC10 (Homo sapiens, UniProt Q969S8); experiment: Inhibition of human recombinant HDAC10 using Ac-Arg-His-Lys (Ac)-Lys (Ac)-AMC substrate incubated for 30 mins by fluorescence assay
T5 sequence (Q969S8 whole entry): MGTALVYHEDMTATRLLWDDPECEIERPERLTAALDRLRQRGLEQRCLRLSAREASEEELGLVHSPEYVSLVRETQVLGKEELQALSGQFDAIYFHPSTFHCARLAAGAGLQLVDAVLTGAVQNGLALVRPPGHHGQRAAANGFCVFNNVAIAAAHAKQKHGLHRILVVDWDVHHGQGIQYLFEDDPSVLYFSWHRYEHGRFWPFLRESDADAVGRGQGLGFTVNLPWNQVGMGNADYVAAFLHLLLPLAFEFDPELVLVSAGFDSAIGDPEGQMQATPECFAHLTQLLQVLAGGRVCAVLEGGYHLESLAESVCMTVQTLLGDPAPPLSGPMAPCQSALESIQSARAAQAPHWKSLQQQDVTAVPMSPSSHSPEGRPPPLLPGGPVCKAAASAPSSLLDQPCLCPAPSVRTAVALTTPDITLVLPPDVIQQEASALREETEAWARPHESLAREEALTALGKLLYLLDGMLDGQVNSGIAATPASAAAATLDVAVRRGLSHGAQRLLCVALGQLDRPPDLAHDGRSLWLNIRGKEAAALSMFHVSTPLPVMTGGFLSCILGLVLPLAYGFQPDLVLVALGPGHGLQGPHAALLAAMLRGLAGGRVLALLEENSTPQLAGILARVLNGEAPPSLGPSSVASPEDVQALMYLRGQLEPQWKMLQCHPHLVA

[9] = molecular target: T6, Protein deacetylase HDAC6 (Homo sapiens) (UniProt Q9UBN7); experiment: Inhibition of human recombinant HDAC6 using Ac-Leu-Gly-Lys (Ac)-AMC substrate incubated for 30 mins by fluorescence assay
T6 sequence (whole entry): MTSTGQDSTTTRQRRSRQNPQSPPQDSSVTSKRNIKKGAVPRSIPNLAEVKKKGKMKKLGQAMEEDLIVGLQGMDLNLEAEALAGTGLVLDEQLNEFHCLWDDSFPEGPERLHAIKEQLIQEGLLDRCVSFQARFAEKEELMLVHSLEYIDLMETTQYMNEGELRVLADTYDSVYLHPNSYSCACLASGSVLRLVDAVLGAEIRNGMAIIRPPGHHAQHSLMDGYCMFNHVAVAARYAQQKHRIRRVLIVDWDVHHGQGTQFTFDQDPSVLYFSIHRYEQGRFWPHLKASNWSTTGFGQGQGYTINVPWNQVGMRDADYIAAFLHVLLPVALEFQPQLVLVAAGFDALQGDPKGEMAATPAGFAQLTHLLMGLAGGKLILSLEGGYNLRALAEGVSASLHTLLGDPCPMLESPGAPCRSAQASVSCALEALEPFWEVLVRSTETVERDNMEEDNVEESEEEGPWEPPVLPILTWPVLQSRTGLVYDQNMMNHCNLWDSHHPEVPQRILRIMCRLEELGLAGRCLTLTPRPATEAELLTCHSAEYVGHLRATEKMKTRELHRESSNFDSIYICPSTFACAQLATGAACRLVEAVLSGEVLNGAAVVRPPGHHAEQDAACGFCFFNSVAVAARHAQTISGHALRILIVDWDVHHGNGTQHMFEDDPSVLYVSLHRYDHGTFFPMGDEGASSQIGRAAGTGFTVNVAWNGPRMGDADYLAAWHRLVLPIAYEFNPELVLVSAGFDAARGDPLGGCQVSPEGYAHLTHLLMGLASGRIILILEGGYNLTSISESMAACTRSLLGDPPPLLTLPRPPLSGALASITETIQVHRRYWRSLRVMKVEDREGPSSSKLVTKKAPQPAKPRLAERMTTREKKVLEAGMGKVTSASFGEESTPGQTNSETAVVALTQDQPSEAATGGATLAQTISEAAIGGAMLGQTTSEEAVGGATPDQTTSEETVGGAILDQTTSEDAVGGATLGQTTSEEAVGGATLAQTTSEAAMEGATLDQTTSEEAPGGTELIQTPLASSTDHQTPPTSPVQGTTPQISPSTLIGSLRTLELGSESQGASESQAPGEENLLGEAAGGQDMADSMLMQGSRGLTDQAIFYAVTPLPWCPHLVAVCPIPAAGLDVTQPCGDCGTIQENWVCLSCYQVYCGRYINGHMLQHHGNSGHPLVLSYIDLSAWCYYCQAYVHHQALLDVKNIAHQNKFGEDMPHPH

[10] = Antiproliferative activity against human EB3 cells assessed as growth inhibition incubated for 3 days by MTT assay; assay type: functional; conditions: EB-3, 72 h

T2 sequence (O15379 whole entry): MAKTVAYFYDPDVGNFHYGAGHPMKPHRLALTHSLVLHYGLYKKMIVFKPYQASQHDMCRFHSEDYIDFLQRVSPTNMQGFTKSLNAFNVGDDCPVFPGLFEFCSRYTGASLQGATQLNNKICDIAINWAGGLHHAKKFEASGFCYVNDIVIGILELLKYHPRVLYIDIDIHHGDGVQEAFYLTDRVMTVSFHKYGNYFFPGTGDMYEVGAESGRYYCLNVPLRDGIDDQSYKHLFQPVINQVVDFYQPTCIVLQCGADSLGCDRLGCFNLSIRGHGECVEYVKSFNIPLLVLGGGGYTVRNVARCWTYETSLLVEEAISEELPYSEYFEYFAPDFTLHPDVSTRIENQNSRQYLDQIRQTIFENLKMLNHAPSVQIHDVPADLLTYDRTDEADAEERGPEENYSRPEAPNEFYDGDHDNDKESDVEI
T2 sequence (Q9Y618 whole entry, further chain): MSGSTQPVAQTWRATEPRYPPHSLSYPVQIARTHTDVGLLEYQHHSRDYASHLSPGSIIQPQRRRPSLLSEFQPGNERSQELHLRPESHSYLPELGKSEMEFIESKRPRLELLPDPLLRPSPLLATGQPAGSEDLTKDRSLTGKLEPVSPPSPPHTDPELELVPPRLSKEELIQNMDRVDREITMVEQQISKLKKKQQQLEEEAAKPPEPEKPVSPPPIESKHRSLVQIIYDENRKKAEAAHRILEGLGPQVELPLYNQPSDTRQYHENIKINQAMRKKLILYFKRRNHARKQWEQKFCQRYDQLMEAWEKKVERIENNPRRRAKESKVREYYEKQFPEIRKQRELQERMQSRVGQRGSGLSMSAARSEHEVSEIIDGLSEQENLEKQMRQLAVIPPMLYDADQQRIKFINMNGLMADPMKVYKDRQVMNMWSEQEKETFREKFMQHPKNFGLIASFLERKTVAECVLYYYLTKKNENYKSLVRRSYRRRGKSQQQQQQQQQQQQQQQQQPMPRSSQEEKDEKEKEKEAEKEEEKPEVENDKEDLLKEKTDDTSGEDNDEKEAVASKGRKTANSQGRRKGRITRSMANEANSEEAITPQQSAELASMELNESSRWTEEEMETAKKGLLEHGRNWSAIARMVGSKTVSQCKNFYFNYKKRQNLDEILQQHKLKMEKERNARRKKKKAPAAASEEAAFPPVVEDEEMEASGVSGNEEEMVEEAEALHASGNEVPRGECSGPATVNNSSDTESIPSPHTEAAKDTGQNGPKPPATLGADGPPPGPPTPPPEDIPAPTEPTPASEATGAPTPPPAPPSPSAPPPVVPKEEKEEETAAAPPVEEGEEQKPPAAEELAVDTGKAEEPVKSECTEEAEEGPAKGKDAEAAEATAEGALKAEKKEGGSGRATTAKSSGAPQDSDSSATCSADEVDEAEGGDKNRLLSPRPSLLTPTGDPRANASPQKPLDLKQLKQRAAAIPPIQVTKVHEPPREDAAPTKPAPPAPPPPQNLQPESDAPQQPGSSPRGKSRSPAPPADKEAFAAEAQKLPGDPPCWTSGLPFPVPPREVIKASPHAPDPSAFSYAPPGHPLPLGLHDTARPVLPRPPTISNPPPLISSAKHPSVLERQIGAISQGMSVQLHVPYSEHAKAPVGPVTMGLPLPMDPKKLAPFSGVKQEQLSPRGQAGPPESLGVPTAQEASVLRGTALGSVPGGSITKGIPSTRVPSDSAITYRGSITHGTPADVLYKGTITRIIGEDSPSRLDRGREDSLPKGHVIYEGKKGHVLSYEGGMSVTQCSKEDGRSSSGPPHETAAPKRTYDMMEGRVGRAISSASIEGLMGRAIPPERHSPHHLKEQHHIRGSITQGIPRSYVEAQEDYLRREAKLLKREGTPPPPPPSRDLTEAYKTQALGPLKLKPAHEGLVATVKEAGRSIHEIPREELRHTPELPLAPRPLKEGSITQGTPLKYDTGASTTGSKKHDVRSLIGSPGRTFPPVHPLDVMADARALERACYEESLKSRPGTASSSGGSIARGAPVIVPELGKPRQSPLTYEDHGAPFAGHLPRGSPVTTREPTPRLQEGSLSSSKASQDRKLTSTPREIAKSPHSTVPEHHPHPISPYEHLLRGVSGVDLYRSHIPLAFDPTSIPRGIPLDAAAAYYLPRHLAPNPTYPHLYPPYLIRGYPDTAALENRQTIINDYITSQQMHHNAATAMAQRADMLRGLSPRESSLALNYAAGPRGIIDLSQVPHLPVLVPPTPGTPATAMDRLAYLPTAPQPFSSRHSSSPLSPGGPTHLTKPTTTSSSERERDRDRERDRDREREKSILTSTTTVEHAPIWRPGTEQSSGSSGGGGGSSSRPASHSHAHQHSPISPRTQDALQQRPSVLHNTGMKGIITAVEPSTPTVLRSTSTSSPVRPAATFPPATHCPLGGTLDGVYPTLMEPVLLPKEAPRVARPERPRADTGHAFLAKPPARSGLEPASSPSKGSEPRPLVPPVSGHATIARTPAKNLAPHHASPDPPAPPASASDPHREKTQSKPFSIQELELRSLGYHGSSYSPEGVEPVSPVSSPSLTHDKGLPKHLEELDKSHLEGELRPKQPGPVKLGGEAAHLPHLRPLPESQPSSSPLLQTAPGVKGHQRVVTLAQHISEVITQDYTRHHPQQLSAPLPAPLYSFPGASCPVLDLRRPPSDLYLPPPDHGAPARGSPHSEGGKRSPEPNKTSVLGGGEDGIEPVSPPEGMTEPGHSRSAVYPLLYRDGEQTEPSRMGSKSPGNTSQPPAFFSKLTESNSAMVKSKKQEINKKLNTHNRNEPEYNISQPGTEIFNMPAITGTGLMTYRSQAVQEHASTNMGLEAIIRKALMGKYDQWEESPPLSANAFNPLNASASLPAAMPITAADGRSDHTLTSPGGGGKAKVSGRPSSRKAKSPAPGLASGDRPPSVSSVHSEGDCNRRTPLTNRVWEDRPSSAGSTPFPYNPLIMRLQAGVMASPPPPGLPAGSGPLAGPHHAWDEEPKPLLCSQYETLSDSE
Chain of Histone deacetylase 1 (Q13547 whole entry): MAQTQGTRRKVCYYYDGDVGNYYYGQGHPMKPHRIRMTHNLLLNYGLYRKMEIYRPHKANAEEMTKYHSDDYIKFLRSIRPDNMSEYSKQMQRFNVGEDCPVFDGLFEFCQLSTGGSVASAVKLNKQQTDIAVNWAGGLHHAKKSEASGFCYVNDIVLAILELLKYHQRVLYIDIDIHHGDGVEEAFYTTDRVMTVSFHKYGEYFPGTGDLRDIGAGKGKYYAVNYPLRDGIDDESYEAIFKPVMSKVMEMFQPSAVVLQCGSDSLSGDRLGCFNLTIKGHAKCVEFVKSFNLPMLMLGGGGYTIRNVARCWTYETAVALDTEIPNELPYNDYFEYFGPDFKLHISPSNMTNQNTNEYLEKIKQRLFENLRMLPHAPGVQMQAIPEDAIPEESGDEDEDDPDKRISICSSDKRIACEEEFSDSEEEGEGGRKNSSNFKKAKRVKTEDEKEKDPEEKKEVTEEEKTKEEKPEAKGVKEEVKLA
Chain of Histone deacetylase 2 (Q92769 whole entry): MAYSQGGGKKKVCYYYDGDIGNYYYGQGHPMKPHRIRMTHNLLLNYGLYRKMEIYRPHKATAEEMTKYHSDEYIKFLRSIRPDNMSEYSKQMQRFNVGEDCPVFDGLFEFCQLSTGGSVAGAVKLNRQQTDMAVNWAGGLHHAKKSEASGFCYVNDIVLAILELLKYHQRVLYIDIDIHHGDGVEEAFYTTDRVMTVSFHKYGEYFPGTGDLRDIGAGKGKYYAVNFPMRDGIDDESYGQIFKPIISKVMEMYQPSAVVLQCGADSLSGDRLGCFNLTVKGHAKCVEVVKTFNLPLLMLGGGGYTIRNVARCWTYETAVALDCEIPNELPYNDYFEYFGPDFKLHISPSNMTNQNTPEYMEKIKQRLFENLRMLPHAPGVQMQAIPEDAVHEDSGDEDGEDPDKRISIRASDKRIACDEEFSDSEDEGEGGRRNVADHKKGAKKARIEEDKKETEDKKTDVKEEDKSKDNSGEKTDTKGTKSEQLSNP
Chain of Histone deacetylase 5 (Homo sapiens) (Q9UQL6 whole entry): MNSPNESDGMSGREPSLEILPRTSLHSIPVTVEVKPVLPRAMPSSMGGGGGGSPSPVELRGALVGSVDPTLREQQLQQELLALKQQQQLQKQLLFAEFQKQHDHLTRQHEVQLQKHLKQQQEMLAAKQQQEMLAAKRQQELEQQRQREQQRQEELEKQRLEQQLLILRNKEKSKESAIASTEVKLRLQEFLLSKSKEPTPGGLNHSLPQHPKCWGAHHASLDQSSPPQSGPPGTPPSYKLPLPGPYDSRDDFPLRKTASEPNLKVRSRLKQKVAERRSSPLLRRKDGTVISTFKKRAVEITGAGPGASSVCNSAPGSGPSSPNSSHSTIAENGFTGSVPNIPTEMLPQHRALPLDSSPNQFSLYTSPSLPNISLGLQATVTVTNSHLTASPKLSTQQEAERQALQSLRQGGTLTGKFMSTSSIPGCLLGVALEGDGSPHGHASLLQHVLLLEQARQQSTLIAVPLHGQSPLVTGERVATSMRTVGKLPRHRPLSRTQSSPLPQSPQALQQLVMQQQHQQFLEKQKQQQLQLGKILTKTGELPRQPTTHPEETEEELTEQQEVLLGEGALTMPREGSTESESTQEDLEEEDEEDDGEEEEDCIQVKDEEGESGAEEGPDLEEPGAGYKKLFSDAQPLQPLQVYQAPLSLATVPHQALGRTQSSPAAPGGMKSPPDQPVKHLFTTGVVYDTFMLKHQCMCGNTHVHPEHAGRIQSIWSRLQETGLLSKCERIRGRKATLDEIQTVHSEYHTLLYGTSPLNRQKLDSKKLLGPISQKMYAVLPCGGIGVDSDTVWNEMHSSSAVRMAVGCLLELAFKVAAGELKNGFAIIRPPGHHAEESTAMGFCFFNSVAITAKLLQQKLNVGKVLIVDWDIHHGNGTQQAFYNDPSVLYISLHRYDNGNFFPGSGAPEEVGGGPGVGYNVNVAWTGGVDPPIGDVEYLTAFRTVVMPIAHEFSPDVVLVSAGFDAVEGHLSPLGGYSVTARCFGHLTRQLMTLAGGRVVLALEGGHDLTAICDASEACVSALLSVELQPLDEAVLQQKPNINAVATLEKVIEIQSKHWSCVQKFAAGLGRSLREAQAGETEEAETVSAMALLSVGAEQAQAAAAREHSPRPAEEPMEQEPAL

For `CCC[C@H]1NC(=O)[C@@H](Cc2ccc(O)cc2)NC(=O)[C@@H](C)NC(=O)[C@@H](C(C)C)NC(=O)[C@H]1C`, the inhibition [1] was “inactive”, the Ki [2] was 0.78 µM and the inhibition [3] was “inactive”. The inhibition [4] was “inactive”, the Ki (Histone deacetylase 11) was 6 µM and the Ki [5] was 3 µM. For the same compound, the inhibition [6] was “inactive”, the Ki (Histone deacetylase 1) was 2.4 µM and the Ki (Histone deacetylase 2) was 1.4 µM. For the same compound, the inhibition (EB-3) was “inactive”, the inhibition [7] was “inactive” and the Ki [8] was 4 µM. The inhibition [9] was “inactive” and the GI50 [10] was over 50 µM.

In the case of `CCC(=O)CCCCC[C@@H]1NC(=O)[C@H]2CCCCN2C(=O)[C@H]([C@@H](C)CC)NC(=O)[C@H](Cc2cn(OC)c3ccccc23)NC1=O` [APICIDIN], the inhibition (EB-3) is reported as “Active” and the GI50 [10] is reported as 0.8 µM.

With `CC(C)[C@H]1NC(=O)[C@@H](C)[C@@H](C/C=C\CCC(=O)O)NC(=O)[C@@H](Cc2ccc(O)cc2)NC(=O)[C@@H](C)NC1=O` [AZUMAMIDE C] the Ki [2] was 0.00967 µM, the Ki (Histone deacetylase 11) was 0.06 µM and the Ki [5] was 0.018 µM. For the same compound, the Ki (Histone deacetylase 1) was 0.02 µM, the Ki (Histone deacetylase 2) was 0.01 µM and the inhibition (EB-3) was “inactive”. For the same compound, the Ki [8] was 0.02 µM and the GI50 [10] was over 25 µM.

With `CC(C)[C@H]1NC(=O)[C@@H](C)[C@@H](C/C=C\CCC(N)=O)NC(=O)[C@@H](Cc2ccc(O)cc2)NC(=O)[C@@H](C)NC1=O` [AZUMAMIDE B] the inhibition (EB-3) was “inactive” and the GI50 [10] was over 50 µM.
